Source: publication PMC5775429, “LY2087101 and dFBr share transmembrane binding sites in the (α4)3(β2)2 Nicotinic Acetylcholine Receptor” (Scientific Reports, 2018)
Like-named read-outs stand apart in the source and are kept apart here. Marks after values point to notes of the source that are not given here.

What was measured:
α3β2 nAChR = molecular target: T1, α3β2 nAChR (Homo sapiens, UniProt P17787+P32297); assay: Two-electrode voltage-clamp of ACh-induced currents in Xenopus oocytes; type: cell-based; details: 1 μM PAM
T1 construct: expressed in transfected cells; host or cells: Xenopus laevis oocytes injected with cRNA
T1 sequence (P32297 32-505): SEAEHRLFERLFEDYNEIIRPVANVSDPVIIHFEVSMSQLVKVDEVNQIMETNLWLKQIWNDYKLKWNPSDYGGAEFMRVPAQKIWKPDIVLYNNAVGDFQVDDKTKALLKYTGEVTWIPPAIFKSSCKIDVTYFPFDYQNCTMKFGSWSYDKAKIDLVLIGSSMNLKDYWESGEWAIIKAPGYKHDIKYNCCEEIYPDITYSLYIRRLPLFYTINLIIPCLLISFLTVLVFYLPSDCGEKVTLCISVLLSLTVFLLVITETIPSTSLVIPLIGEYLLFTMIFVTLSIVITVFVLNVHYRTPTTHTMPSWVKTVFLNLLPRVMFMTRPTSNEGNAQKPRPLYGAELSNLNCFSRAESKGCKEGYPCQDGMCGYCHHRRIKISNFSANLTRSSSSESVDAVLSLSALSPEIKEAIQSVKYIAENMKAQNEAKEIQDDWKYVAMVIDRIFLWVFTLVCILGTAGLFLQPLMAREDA
T1 sequence (P17787 26-502): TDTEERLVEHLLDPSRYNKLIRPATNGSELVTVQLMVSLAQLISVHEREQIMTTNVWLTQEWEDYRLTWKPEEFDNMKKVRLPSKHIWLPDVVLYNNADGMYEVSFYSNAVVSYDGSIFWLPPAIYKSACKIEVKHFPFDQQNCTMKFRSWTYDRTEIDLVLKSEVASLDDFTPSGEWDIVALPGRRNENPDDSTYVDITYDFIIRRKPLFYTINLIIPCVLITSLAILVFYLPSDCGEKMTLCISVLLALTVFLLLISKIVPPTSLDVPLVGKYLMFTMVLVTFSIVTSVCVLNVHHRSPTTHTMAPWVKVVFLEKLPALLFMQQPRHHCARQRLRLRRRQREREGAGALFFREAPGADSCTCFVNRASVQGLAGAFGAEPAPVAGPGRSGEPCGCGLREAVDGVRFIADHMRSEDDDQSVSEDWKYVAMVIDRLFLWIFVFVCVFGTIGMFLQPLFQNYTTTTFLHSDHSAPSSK

(α4R65H)3(β2)2 nAChR = (α4R65H)3(β2)2 nAChR (Homo sapiens, UniProt P43681, R65H); design: method as in PMID 28446611; details: 10 µM ACh + 1 µM dFBr vs 10 µM ACh alone; data reported previously ref 29; cited from earlier work
Chain of (α4R65H)3(β2)2 nAChR (P43681 29-627 R65H limits assumed): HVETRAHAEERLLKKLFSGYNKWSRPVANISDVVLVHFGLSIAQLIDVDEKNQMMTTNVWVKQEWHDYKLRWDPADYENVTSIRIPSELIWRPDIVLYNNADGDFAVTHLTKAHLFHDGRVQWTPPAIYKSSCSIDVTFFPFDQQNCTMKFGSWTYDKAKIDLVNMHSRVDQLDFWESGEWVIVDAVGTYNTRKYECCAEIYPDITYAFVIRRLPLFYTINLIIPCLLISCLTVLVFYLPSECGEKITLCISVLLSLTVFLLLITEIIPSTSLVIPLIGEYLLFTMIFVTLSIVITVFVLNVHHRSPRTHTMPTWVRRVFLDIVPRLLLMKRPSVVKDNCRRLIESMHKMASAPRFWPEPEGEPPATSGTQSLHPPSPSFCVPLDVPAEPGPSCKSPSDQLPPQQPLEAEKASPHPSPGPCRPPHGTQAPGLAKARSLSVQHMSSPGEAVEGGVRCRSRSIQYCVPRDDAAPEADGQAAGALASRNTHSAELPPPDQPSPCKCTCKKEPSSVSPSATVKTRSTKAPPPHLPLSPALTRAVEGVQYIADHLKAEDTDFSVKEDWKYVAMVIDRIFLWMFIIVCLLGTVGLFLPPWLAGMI
Chain of (α4R65H)3(β2)2 nAChR (P17787 26-502 partner): as the sequence (P17787 26-502) above

(α4Q150T)3(β2)2 nAChR [1] = molecular target: T2, (α4Q150T)3(β2)2 nAChR (Homo sapiens, UniProt P43681, Q150T); design: method as in PMID 28446611; details: 10 µM ACh + 1 µM dFBr vs 10 µM ACh alone; data reported previously ref 29; cited from earlier work
T2 sequence (P43681 29-627 Q150T limits assumed): as the sequence (P43681 29-627 R65H limits assumed) above, with H37R, Q122T counted along it
T2 sequence (P17787 26-502 partner): as the sequence (P17787 26-502) above

(α4T152I)3(β2)2 nAChR [2] = molecular target: T3, (α4T152I)3(β2)2 nAChR (Homo sapiens, UniProt P43681, T152I); design: method as in PMID 28446611; details: 10 µM ACh + 1 µM dFBr vs 10 µM ACh alone; data reported previously ref 29; cited from earlier work
T3 sequence (P43681 29-627 T152I limits assumed): as the sequence (P43681 29-627 R65H limits assumed) above, with H37R, T124I counted along it
T3 sequence (P17787 26-502 partner): as the sequence (P17787 26-502) above

animal model [3] = test system: animal model; design: method as in PMID 23712602, PMID 28446611, PMID 28809075, PMID 28105008; details: cited from earlier work
animal model [4] = test system: animal model; design: method as in PMID 23712602, PMID 28446611, PMID 28809075, PMID 28105008; details: cited from earlier work; remark: listed apart in the source
(α4H94N)3(β2)2 nAChR = (α4H94N)3(β2)2 nAChR (Homo sapiens, UniProt P43681, H94N); assay: Two-electrode voltage-clamp of ACh-induced currents in Xenopus oocytes; type: cell-based; details: 10 µM ACh + 1 µM LY2087101 vs 10 µM ACh alone
Chain of (α4H94N)3(β2)2 nAChR (P43681 29-627 H94N limits assumed): as the sequence (P43681 29-627 R65H limits assumed) above, with H37R, H66N counted along it
Chain of (α4H94N)3(β2)2 nAChR (P17787 26-502 partner): as the sequence (P17787 26-502) above
Protocol: (§1) For amino acid substitutions within the α4 nAChR subunit, point mutations were introduced into pSP64ployA plasmid with cDNA encoding for human α4 nAChR subunit with mutagenic primer pairs using the Quick Change II Site-Directed Mutagenesis Kit (Agilent Technologies) then confirmed by DNA sequencing (GENEWIZ, LLC, South Plainfield, NJ). cRNA transcripts suitable for oocyte expression were prepared in vitro from linearized plasmids [α3 (BamH1), α4 (AseI), β2 (PvuII), β4 (XhoI)] using mMESSAGE mMACHINE high yield capped RNA transcription kits (Ambion) and purified on NucAway Spin column (Invitrogen). cRNA concentration was determined by spectroscopy (Concentration (ug/ul) = Abs260 * 40), aliquoted and stored at −80 °C until used.
(§2) Ovarian lobules were surgically harvested from oocytes-positive female Xenopus laevis (NASCO, Fort Atkinson, WI) according to an animal use protocol approved by the Texas A&M Health Sciences Center Institutional Animals Care and Use Committee. The Texas A&M Health Sciences Center Research Facility is registered as an animal research facility with the United States Department of Agriculture and is fully accredited by the American Association for Accreditation of Laboratory Animal Care (AAALAC). For oocytes defolliculation, ovarian lobes were treated with 3 mg/ml collagenase type 2 (Worthington Biomedical, Lakewood, NJ) in Ca + 2-free buffer (85 mM NaCl, 2.5 mM KCl, 1 mM MgCl2, 5 mM HEPES, pH 7.6). Collagenase treatment was allowed to proceed for 3 hours at room temperature with gentle shaking then oocytes were washed several times with buffer to remove collagenase then with ND96-gentamicine buffer. Healthy Stage V and VI oocytes were visually selected and maintained at 18 °C in modified ND96-gentamicine buffer (96 mM NaCl, 2 mM KCl, 1.8 mM CaCl2, 1 mM MgCl2, 5 mM HEPES, 50 µg/ml gentamicin, pH 7.6). Oocytes were injected with 50–100 ng of the desired nAChR subunits cRNA mix at ratios of 8α:1β or 1α:8β to express nAChRs with subunit stoichiometries of 3α:2β (low agonist sensitivity) or 2α:3β (high agonist sensitivity), respectively.
(§3) Two-electrode voltage clamp recording of ACh-induced responses of Xenopus oocytes were performed 24–72 h following injection of nAChR subunit cRNA mix to ensure adequate nAChRs expression. Xenopus oocytes were placed in a custom-made recording chamber that is connected to eight channels automated perfusion system (Warner Instruments) and voltage-clamped at −50 mV using Oocyte Clamp OC-725B (Warner Instruments). Oocytes were continuously perfused with recording buffer (100 mM NaCl, 2 mM KCl, 1 mM CaCl2, 0.8 mM MgCl2, 1 mM EGTA, 10 mM Hepes, pH 7.5) except during periods of drug applications. […] Currents were digitized using Digidata 1550 A (Axon Instruments) and peak currents were quantified using pCLAMP 10 (Axon Instruments) then normalized and analyzed using Excels 2010 (Microsoft corporation) and SigmaPlot 11.0 (Systat Software).

(α4Q150T)3(β2)2 nAChR [5] = molecular target: T2, (α4Q150T)3(β2)2 nAChR; assay: as above; type: cell-based; details: 10 µM ACh + 1 µM LY2087101 vs 10 µM ACh alone
Protocol: as §1, §2, §3

(α4R148E)3(β2)2 nAChR = (α4R148E)3(β2)2 nAChR (Homo sapiens, UniProt P43681, R148E); assay: as above; type: cell-based; details: 10 µM ACh + 1 µM LY2087101 vs 10 µM ACh alone
Chain of (α4R148E)3(β2)2 nAChR (P43681 29-627 R148E limits assumed): as the sequence (P43681 29-627 R65H limits assumed) above, with H37R, R120E counted along it
Chain of (α4R148E)3(β2)2 nAChR (P17787 26-502 partner): as the sequence (P17787 26-502) above
Protocol: as §1, §2, §3

(α4T152I)3(β2)2 nAChR [6] = molecular target: T3, (α4T152I)3(β2)2 nAChR; assay: as above; type: cell-based; details: 10 µM ACh + 1 µM LY2087101 vs 10 µM ACh alone
Protocol: as §1, §2, §3

| SMILES | potentiation of ACh responses (α3β2 nAChR) | R, potentiation ratio (PR) ((α4R65H)3(β2)2 nAChR) | R, potentiation ratio (PR) ((α4Q150T)3(β2)2 nAChR [1]) | R, potentiation ratio (PR) ((α4T152I)3(β2)2 nAChR [2]) | nicotine self-administration (animal model [3]) | antiallodynic response of nicotine (animal model [4]) | R, potentiation ratio (PR) ((α4H94N)3(β2)2 nAChR) | R, potentiation ratio (PR) ((α4Q150T)3(β2)2 nAChR [5]) | R, potentiation ratio (PR) ((α4R148E)3(β2)2 nAChR) | R, potentiation ratio (PR) ((α4T152I)3(β2)2 nAChR [6]) |
| --- | --- | --- | --- | --- | --- | --- | --- | --- | --- | --- |
| C=CC(C)(C)c1[nH]c2cc(Br)ccc2c1CCNC [dFBr] | did not potentiate | 5.3 ± 1.8^a | 3.9 ± 0.1^a | 2.6 ± 0.4^a | reduce nicotine self-administration | potentiate the antiallodynic response of nicotine | – | – | – | – |
| Cc1nc(Nc2ccc(F)cc2)sc1C(=O)c1ccsc1 [LY2087101, [2-[(4-Fluorophenyl)amino]-4-methyl-5-thiazolyl]-3-thienylmethanone] | – | – | – | – | – | – | 5.2 ± 1.0 | 4.3 ± 0.2 | 11.1 ± 1.2 | 4.3 ± 1.3 |
